Experimental data reported in US7294491B2 (Ajinomoto Co., Inc., priority 2003, dated 2007).

Legend:
[1] = precipitation concentration (super solubility) of L-glutamic acid in culture medium at pH 4.5 with added L-lysine; format: physicochemical, Pantoea ananatis AJ13601; conditions: pH 4.5 culture
Description: Cells of the Pantoea ananatis AJ13601 strain cultured at 30° C. for 14 hours in the LBG agar medium (10 g/L of trypton, 5 g/L of yeast extract, 10 g/L of NaCl, 15 g/L of agar) containing 25 mg/L of tetracycline hydrochloride and 25 mg/L of chloramphenicol were scraped from one plate and inoculated into 300 ml of seed culture medium having the following composition and contained in a 1 L-volume jar fermenter, and seed culture was performed at 34° C. and pH 6.0.
The pH was adjusted to 6.0 by adding ammonia gas during the culture. The seed culture was finished by observing depletion of the saccharide in the medium as an index, and the seed culture medium of 20% volume of the main culture medium was inoculated into 300 ml of the main culture medium contained in a 1 L-volume jar fermenter to perform the main culture under the conditions of 34° C. and pH 4.5. The composition of the main culture medium is shown below.
The pH was adjusted to 4.5 by adding ammonia gas during the culture. After the saccharide in the medium was consumed and depleted, 700 g/L of glucose aqueous solution was continuously added (6 ml/hr).
The liquid supernatant of the culture medium was obtained by centrifuging the culture medium at 10000×G for 1 minute. The polymorphism of crystals which precipitated in the culture medium was determined by microscopic observation.

[2] = crystal form of L-glutamic acid crystals precipitated in a cooling-crystallization system with added amino acid; format: physicochemical; conditions: FIG. 7

| control of precipitated L-glutamic acid crystal form by added amino acid ([2]; pH 3.2, super saturation 2, 34° C.) | control of precipitated L-glutamic acid crystal form by added amino acid ([2]; pH 4.5 or more, super saturation 2, 34° C.) | SMILES | concentration of added L-lysine above which α-form crystals form naturally without seed crystals [1] | control of precipitated L-glutamic acid crystal form by added amino acid ([2]; pH 4.5, super saturation 2, 34° C.) |
| --- | --- | --- | --- | --- |
| – | – | NCCCC[C@H](N)C(=O)O [L-lysine] | exceeds 900 mg/L | could be controlled to the α-form |
| showed the same effect | such an effect could not be observed | N[C@@H](Cc1ccccc1)C(=O)O [L-phenylalanine] | – | – |
